The text below walks through data of ChEMBL document CHEMBL5226355, “Design and Synthesis of Indenoisoquinolines Targeting Topoisomerase I and Other Biological Macromolecules for Cancer Chemotherapy” (J Med Chem, 2021).

Where only a bound is given, the exact number is not on record here.

The subject of assay [1] is KB. In words: Cytotoxicity against human KB cells. Type of assay: functional, cell-based.
Assay [2] deals with KB. The assay is described as follows: Cytotoxicity against FR-knockdown human KB cells. It counts as functional, cell-based.
Assay [3] deals with Leishmania infantum. In words: Antileishmanial activity against Leishmania infantum promastigotes BCN150. It counts as functional, organism-based.
Assay [4] has as its system Leishmania infantum. In words: Antileishmanial activity against Leishmania infantum promastigote infected in BALB/c mouse assessed as reduction in parasite burden in spleen at 2.5 mg/kg, iv administered once every other day for 15 days. The arrangement: scale not given: the % may be the effect or the level left. Particulars: time 15 day. It counts as functional.
Assay [5] concerns Leishmania infantum. The assay is described as follows: Antileishmanial activity against Leishmania infantum promastigote infected in BALB/c mouse assessed as reduction in parasite burden in liver at 2.5 mg/kg, iv administered once every other day for 15 days. The arrangement: scale not given: the % may be the effect or the level left. Particulars: time 15 day. Type of assay: functional.

As a reminder, the IC50 is the concentration needed to halve the response being measured. On to `CCOC(c1ccc(COCC(=O)NCCOCCOCCOCCOCCOCCNC(=O)CC[C@H](NC(=O)c2ccc(NCc3cnc4nc(N)nc(O)c4n3)cc2)C(=O)O)cc1OC)n1cnc(CCn2c3c(c4ccccc4c2=O)C(=O)c2ccccc2-3)c1` (some centres not stated), for which the concentration for half-maximal inhibition (IC50) with KB [1] amounted to 60 µM; with KB [2], 655 µM. With `NC[C@@H]1O[C@H](O[C@H]2[C@@H](O)[C@H](O[C@@H]3[C@@H](O)[C@H](N)C[C@H](N)[C@H]3O[C@H]3O[C@H](CO)[C@@H](O)[C@H](O)[C@H]3N)O[C@@H]2CO)[C@H](N)[C@@H](O)[C@@H]1O` [PAROMOMYCIN], in the assay with Leishmania infantum [3], the concentration for half-maximal inhibition (IC50) is 42.4 µM. The same measure, in the same setting: for `CC[C@@]1(O)C(=O)OCc2c1cc1n(c2=O)Cc2cc3ccccc3nc2-1` [CAMPTOTHECIN] the value was 1.12 µM; for `COc1cc2c3c(n(CCCN4CCOCC4)c(=O)c2cc1OC)-c1cc2c(cc1C3=O)OCO2` [INDOTECAN], 0.1 µM. On to `O=C1c2ccccc2-c2c1c1ccc([N+](=O)[O-])cc1c(=O)n2CCCN1CCOCC1`, for which the Activity with Leishmania infantum [4] and in the assay on Leishmania infantum [5] was above 80% throughout.
